Where two headings read alike, the source gives them in different places.
Key:
human glioma (GLO7) = experiment: Antitumor effect of the compounds against human glioma (GLO7), nude mice xenograft; assay type: in vivo; conditions: Mus musculus, po, 216 h, read-out: Tumor growth inhibition rate (TGIR)
Description: Analogously to 2, human glioma cells, GLO7 (obtained from the Central Institute for Experimental Animals), was transplanted into nude mice. When the tumor had grown to a volume of about 100 mm^3, the nude mice were divided into several groups of 4 animals so as to equalize the average tumor volumes of each group. The test drug was administered orally to animals in experimental groups once a day for 9 consecutive days at 50 mg/kg, and the vehicle was administered to control animals. The tumor growth inhibition rate (TGIR, %) was calculated from the equation: TGIR=(1-Tx/Cx)×100, in which Cx is the tumor volume in the control mice and Tx is the tumor volume in the drug-treated mice, on day X, when the initial tumor volume at the time treatment was commenced is set 1.

PDGF receptor = molecular target: T1, PDGF receptor (Rattus norvegicus, UniProt Q05030); experiment: PDGF receptor autophosphorylation inhibition in cultured rat mesangial cells; assay type: cell-based; conditions: PDGF-BB 50 ng/ml
T1 construct: cultured rat mesangial cells which are known to have the PDGF receptor; endogenous in cells; host or cells: primary mesangial cells cultured from glomeruli of Wistar-Kyoto rats (Charles River Japan), more than 5 passages
Description: 1. Cultivation of rat mesangial cells
The glomerulus-derived adhesive cells were subcultured several times to obtain mesangial cells. The mesangial cells subcultured more than 5 passages were used for the assay.
2.Evaluation of PDGF receptor autophosphorylation inhibition
The mesangial cells were seeded in 24-well flat-bottom microtiter plates and then cultured in the medium containing 10% FCS for 2 days. When the cells were grown to about 3×10^4 cells per well, the medium was changed to the medium containing 0.5% FCS, the cultivation was continued for another 3 days, and then cell growth was arrested. The culture medium was removed, the adhered cells were washed with 500 μl of the medium, and 250 μl of the medium containing 0.1% bovine serum albumin (hereinafter abbreviated to BSA) was then added. A test drug dissolved in 1.38 μl of dimethyl sulfoxide (hereinafter abbreviated to DMSO) was added to this culture medium, and the admixture was incubated at 37° C. for 1 hour. Recombinant human platelet-derived growth factor BB chain (hereinafter abbreviated to PDGF-BB) was dissolved in the medium containing 0.1% BSA, 25 μl per well of the solution was added at final 50 ng/ml, and the incubation was continued at 37° C. for 10 minutes. […] The cells were allowed to stand at 4° C. for 30 minutes for lysis, and the resulting solution was thoroughly admixed with an equal amount of Tris-buffered physiological saline containing 1% sodium dodecyl sulfate (hereinafter abbreviated to SDS). […] After the electrophoresis, proteins in the gel were electrically transferred to a PVDF filter, which was then subjected to Western blotting using monoclonal antibodies against phosphotyrosine. Bands of PDGF receptor (molecular weight: about 180 Kda) which were autophosphorylated due to the addition of PDGF-BB were quantitated by a densitometer. Autophosphorylation rates for individual wells with drugs were calculated by setting measurements for PDGF receptor autophosphorylation in the wells without drugs in the presence and absence of PDGF-BB as 100% and 0%, respectively.

[1] = nude mice, 50 mg/kg orally once a day, 9 days

T1 sequence (Q05030 32-1097): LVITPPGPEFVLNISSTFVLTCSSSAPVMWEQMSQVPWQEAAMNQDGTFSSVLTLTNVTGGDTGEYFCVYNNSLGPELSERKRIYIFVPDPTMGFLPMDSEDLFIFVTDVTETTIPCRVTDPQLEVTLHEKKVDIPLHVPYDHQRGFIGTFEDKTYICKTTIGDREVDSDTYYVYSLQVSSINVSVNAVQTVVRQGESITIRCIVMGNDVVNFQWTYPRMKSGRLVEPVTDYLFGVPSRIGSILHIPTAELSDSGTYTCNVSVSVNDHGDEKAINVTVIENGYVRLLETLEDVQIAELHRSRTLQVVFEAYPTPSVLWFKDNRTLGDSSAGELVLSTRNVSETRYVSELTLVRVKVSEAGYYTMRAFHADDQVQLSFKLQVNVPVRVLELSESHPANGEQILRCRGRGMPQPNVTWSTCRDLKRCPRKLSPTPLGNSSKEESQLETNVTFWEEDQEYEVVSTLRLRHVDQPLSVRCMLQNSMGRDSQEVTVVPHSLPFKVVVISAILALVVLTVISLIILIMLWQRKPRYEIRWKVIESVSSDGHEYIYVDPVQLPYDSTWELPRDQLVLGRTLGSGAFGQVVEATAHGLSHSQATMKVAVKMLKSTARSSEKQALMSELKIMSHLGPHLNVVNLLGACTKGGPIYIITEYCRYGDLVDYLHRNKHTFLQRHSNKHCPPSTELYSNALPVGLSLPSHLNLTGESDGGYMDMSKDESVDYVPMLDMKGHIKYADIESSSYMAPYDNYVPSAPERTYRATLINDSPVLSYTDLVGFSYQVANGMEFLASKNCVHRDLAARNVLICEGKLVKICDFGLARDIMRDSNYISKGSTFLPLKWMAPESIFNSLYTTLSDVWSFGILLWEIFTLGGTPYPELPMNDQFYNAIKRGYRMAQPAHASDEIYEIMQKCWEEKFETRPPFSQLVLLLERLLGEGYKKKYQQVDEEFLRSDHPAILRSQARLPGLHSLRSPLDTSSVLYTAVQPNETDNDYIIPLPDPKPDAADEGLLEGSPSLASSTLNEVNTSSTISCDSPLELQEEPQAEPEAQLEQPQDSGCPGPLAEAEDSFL

`COc1cc2nccc(Oc3ccc(NC(=O)Nc4cc(C(F)(F)F)ccc4C(F)(F)F)cc3)c2cc1OC` [Compound 264, N-(2,5-Bis(trifluoromethyl)phenyl]-N'-{4-[(6,7-dimethoxy-4-quinolyl)oxy]phenyl}urea] was tested, and the inhibition in vivo at 50 mg/kg (human glioma (GLO7); [1]) was 63%.
`COc1cc2nccc(Oc3ccc(NC(=O)Nc4ccc(Cl)cc4Cl)cc3)c2cc1OC` [Compound 229, N-(2,4-Dichlorophenyl)-N'-{4-[(6,7-dimethoxy-4-quinolyl)oxy]phenyl}urea] showed an inhibition in vivo at 50 mg/kg (human glioma (GLO7)) of 81%.
`COc1ccc(Cl)cc1NC(=O)Nc1ccc(Oc2ccnc3cc(OC)c(OC)cc23)cc1` [Compound 227, N-(3-Chloro-6-methoxyphenyl)-N'-{4-[(6,7-dimethoxy-4-quinolyl)oxy]phenyl}urea] gave an IC50 (PDGF receptor) of 73 nM and an inhibition in vivo at 50 mg/kg (human glioma (GLO7); [1]) of 78%.
With `CCCNC(=O)Nc1ccc(Oc2ccnc3cc(OC)c(OC)cc23)cc1` [Compound 194, N-{4-[(6,7-Dimethoxy-4-quinolyl)oxy]phenyl}-N'-propylurea] the IC50 (PDGF receptor) was 14 nM and the inhibition in vivo at 50 mg/kg (human glioma (GLO7); [1]) was 59%.
Compound `COc1cc2nccc(Oc3ccc(NC(=O)Nc4ccc(Cl)c(Cl)c4)cc3)c2cc1OC` [Compound 236, N-(3,4-Dichlorophenyl)-N'-[4-[(6,7-dimethoxy-4-quinolyl)oxy]phenyl}urea] has an inhibition in vivo at 50 mg/kg (human glioma (GLO7)) of 84%.
In the case of `COc1cc2nccc(Oc3ccc(NC(=O)Nc4ccc(Cl)c(N)c4)cc3)c2cc1OC` [Compound 244, N-(3-Amino-4-chlorophenyl)-N'-{4-[(6,7-dimethoxy-4-quinolyl)oxy]phenyl}urea], the IC50 (PDGF receptor) is reported as 9 nM and the inhibition in vivo at 50 mg/kg (human glioma (GLO7); [1]) is reported as 73%.
Compound `COc1cc2nccc(Oc3ccc(NC(=O)Nc4cc(Cl)ccc4Cl)cc3)c2cc1OC` [Compound 235] has an inhibition in vivo at 50 mg/kg (human glioma (GLO7)) of 78%.
For `COc1cc2nccc(Oc3ccc(NC(=O)Nc4cccc(F)c4F)cc3)c2cc1OC` [Compound 260, N-(2,3-Difluorophenyl)-N'-{4-[(6,7-dimethoxy-4-quinolyl)oxy]phenyl}urea], the IC50 (PDGF receptor) was 2 nM and the inhibition in vivo at 50 mg/kg (human glioma (GLO7); [1]) was 52%.
In the case of `COc1cc2nccc(Oc3ccc(NC(=O)Nc4cccc(F)c4)cc3)c2cc1OC` [Compound 59], the IC50 (PDGF receptor) is reported as 4 nM and the inhibition in vivo at 50 mg/kg (human glioma (GLO7); [1]) is reported as 82%.
Compound `COc1cc2nccc(Oc3ccc(NC(=O)Nc4ccccc4N(C)C)cc3)c2cc1OC` [Compound 191] has an inhibition in vivo at 50 mg/kg (human glioma (GLO7); [1]) of 50%.
Work on `COc1cc2nccc(Oc3ccc(NC(=O)Nc4ccc(Cl)cc4)cc3)c2cc1OC` [Compound 165, N-(4-Chlorophenyl)-N'-{4-[(6,7-dimethoxy-4-quinolyl)oxy]phenyl}urea] yielded an inhibition in vivo at 50 mg/kg (human glioma (GLO7)) of 70%.
Work on `COc1cc2nccc(Oc3ccc(NC(=O)Nc4ccc(F)cc4F)cc3)c2cc1OC` [Compound 272, N-(2,4-Difluorophenyl)-N'-{4-[(6,7-dimethoxy-4-quinolyl)oxy]phenyl}urea] yielded an IC50 (PDGF receptor) of 3 nM and an inhibition in vivo at 50 mg/kg (human glioma (GLO7); [1]) of 84%.
With `COc1cc2nccc(Oc3ccc(NC(=O)Nc4cccc(Cl)c4)cc3)c2cc1OC` [Compound 267, N-(3-Chlorophenyl)-N'-{4-[(6,7-dimethoxy-4-quinolyl)oxy]phenyl}urea] the IC50 (PDGF receptor) was 150 nM and the inhibition in vivo at 50 mg/kg (human glioma (GLO7); [1]) was 65%.
`COc1cc2nccc(Oc3ccc(NC(=O)Nc4ccc(F)c(F)c4)cc3)c2cc1OC` [Compound 254, N-(3,4-Difluorophenyl)-N'-(4-[(6,7-dimethoxy-4-quinolyl)oxy]phenyl)urea] was tested, and the IC50 (PDGF receptor) was 7 nM and the inhibition in vivo at 50 mg/kg (human glioma (GLO7); [1]) was 85%.
In the case of `COc1ccccc1NC(=O)Nc1ccc(Oc2ccnc3cc(OC)c(OC)cc23)cc1` [Compound 57], the IC50 (PDGF receptor) is reported as 6 nM and the inhibition in vivo at 50 mg/kg (human glioma (GLO7); [1]) is reported as 64%.
`COc1cc2nccc(Oc3ccc(NC(=O)Nc4ccc(Br)cc4)cc3)c2cc1OC` [Compound 45, N-(4-Bromophenyl)-N'-{4-[(6,7-dimethoxy-4-quinolinyl)oxy]phenyl}urea] gave an IC50 (PDGF receptor) of 14 nM and an inhibition in vivo at 50 mg/kg (human glioma (GLO7); [1]) of 68%.
Compound `COc1cc2nccc(Oc3ccc(NC(=O)Nc4ccc(C(F)(F)F)cc4)cc3)c2cc1OC` [Compound 52, N-(4-Trifluoromethylphenyl)-N'-{4-[(6,7-dimethoxy-4-quinolinyl)oxy]phenyl}urea] has an IC50 (PDGF receptor) of 30 nM and an inhibition in vivo at 50 mg/kg (human glioma (GLO7); [1]) of 86%.
With `COc1cc2nccc(Oc3ccc(NC(=O)Nc4ccc(Cl)cc4C)cc3)c2cc1OC` [Compound 242, N-(4-Chloro-2-methylphenyl)-N'-{4-[(6,7-dimethoxy-4-quinolyl)oxy]phenyl}urea] the IC50 (PDGF receptor) was 18 nM and the inhibition in vivo at 50 mg/kg (human glioma (GLO7); [1]) was 62%.
Compound `COc1cc2nccc(Oc3ccc(NC(=O)Nc4c(F)ccc(F)c4F)cc3)c2cc1OC` [Compound 262, N-(2,3,6-Trifluorophenyl)-N'-{4-[(6,7-dimethoxy-4-quinolyl)oxy]phenyl}urea] has an IC50 (PDGF receptor) of 2 nM and an inhibition in vivo at 50 mg/kg (human glioma (GLO7); [1]) of 87%.
`COc1cc2nccc(Oc3ccc(NC(=O)Nc4ccccc4[N+](=O)[O-])cc3)c2cc1OC` [Compound 168, N-{4-[(6,7-Dimethoxy-4-quinolyl)oxy]phenyl}-N'-(2-nitrophenyl)urea] was tested, and the IC50 (PDGF receptor) was 6 nM and the inhibition in vivo at 50 mg/kg (human glioma (GLO7); [1]) was 56%.
Compound `C=CCNC(=O)Nc1ccc(Oc2ccnc3cc(OC)c(OC)cc23)cc1` [Compound 173, N-Allyl-N'-{4-[(6,7-dimethoxy-4-quinolyl)oxy]phenyl}urea] has an IC50 (PDGF receptor) of 16 nM and an inhibition in vivo at 50 mg/kg (human glioma (GLO7); [1]) of 54%.
`COc1cc2nccc(Oc3ccc(NC(=O)Nc4ccc(F)cc4)cc3)c2cc1OC` [Compound 44, N-(4-Fluorophenyl)-N'-{4-[(6,7-dimethoxy-4-quinolinyl)oxy]phenyl}urea] gave an IC50 (PDGF receptor) of 6 nM and an inhibition in vivo at 50 mg/kg (human glioma (GLO7); [1]) of 78%.
Work on `COc1cc2nccc(Oc3ccc(NC(=O)Nc4cccc(Cl)c4OC)cc3)c2cc1OC` [Compound 225, N-(3-Chloro-2-methoxyphenyl)-N'-{4-[(6,7-dimethoxy-4-quinolyl)oxy]phenyl}urea] yielded an IC50 (PDGF receptor) of 47 nM and an inhibition in vivo at 50 mg/kg (human glioma (GLO7); [1]) of 58%.
With `COc1cc2nccc(Oc3ccc(NC(=O)Nc4cccc5ccccc45)cc3)c2cc1OC` [Compound 174, N-{4-[(6,7-Dimethoxy-4-quinolyl)oxy]phenyl}-N'-(1-naphthyl)urea] the IC50 (PDGF receptor) was 2 nM.
For `CCc1ccc(NC(=O)Nc2ccc(Oc3ccnc4cc(OC)c(OC)cc34)cc2)cc1` [Compound 188, N-(4-Ethylphenyl)-N'-{4-[(6,7-dimethoxy-4-quinolyl)oxy]phenyl}urea], the IC50 (PDGF receptor) was 6 nM.
For `COc1cc2nccc(Oc3ccc(NC(=O)Nc4ccc(N)cc4Cl)cc3)c2cc1OC` [Compound 274, N-(4-Amino-2-chlorophenyl)-N'-{4-[(6,7-dimethoxy-4-quinolyl)oxy]phenyl}urea], the IC50 (PDGF receptor) was 36 nM.
`CCCCNC(=O)Nc1ccc(Oc2ccnc3cc(OC)c(OC)cc23)cc1` [Compound 139, N-n-Butyl-N'-{4-[(6,7-dimethoxy-4-quinolyl)oxy]phenyl}urea] gave an IC50 (PDGF receptor) of 5 nM.
In the case of `COc1cc2nccc(Oc3ccc(NC(=O)Nc4c(F)cccc4F)cc3)c2cc1OC` [Compound 263, N-(2,6-Difluorophenyl)-N'-{4-[(6,7-dimethoxy-4-quinolyl)oxy]phenyl}urea], the IC50 (PDGF receptor) is reported as 4 nM.
Work on `COc1cc2nccc(Oc3ccc(NC(=O)Nc4ccccc4N)cc3)c2cc1OC` [Compound 169, N-(2-Aminophenyl)-N'-{4-[(6,7-dimethoxy-4-quinolyl)oxy]phenyl}urea] yielded an IC50 (PDGF receptor) of 4 nM.
`COc1cc2nccc(Oc3ccc(NC(=O)NCc4cccnc4)cc3)c2cc1OC` [Compound 249, N-(4-[(6,7-Dimethoxy-4-quinolyl)oxy]phenyl)-N'-(3-pyridylmethyl) urea] showed an IC50 (PDGF receptor) of 41 nM.
`COc1cc2nccc(Oc3ccc(NC(=O)NCc4ccncc4)cc3)c2cc1OC` [Compound 250] was tested, and the IC50 (PDGF receptor) was 17 nM.
`COc1cc2nccc(Oc3ccc(NC(=O)Nc4ccccc4C)cc3)c2cc1OC` [Compound 56, N-{4-[(6,7-Dimethoxy-4-quinolyl)oxy]phenyl}-N'-(2-methylphenyl)urea] gave an IC50 (PDGF receptor) of 4 nM and an inhibition in vivo at 50 mg/kg (human glioma (GLO7); [1]) of 52%.
`COc1cc(NC(=O)Nc2ccc(Oc3ccnc4cc(OC)c(OC)cc34)cc2)cc(OC)c1` [Compound 259, N-(3,5-Dimethoxyphenyl)-N'-{4-[(6,7-dimethoxy-4-quinolyl)oxy]phenyl}urea] showed an IC50 (PDGF receptor) of 5 nM.
`COc1cc2nccc(Oc3ccc(NC(=O)NCCCCl)cc3)c2cc1OC` [Compound 278, N-(3-Chloropropyl)-N'-{4-[(6,7-dimethoxy-4-quinolyl)oxy]phenyl}urea] gave an IC50 (PDGF receptor) of 3 nM.
In the case of `COc1cc2nccc(Oc3ccc(NC(=O)Nc4ccc([N+](=O)[O-])cc4)cc3)c2cc1OC` [Compound 46, N-{4-[(6,7-Dimethoxy-4-quinolinyl)oxy]phenyl}-N'-(4-nitrophenyl)urea], the IC50 (PDGF receptor) is reported as 21 nM.
Compound `COc1cc2nccc(Oc3ccc(NC(=O)Nc4cc(Cl)cc(Cl)c4)cc3)c2cc1OC` [Compound 237, N-(3,5-Dichlorophenyl)-N'-{4-[(6,7-dimethoxy-4-quinolyl)oxy]phenyl}urea] has an inhibition in vivo at 50 mg/kg (human glioma (GLO7)) of 74%.
In the case of `COc1cccc(Oc2ccnc3cc(OC)c(OC)cc23)c1` [Compound 2, 6,7-Dimethoxy-4-(3-methoxyphenoxy)quinoline], the IC50 (PDGF receptor) is reported as 440 nM.

— patent US6143764A, “Quinoline and quinazoline derivatives inhibiting platelet-derived growth factor receptor autophosphorylation and pharmaceutical compositions containing the same” (priority 1995, dated 2000)
